As usually defined, the IC50 is the concentration that gives 50% inhibition. For orientation: inhibition means the change of the read-out against control, counted positive when it falls. Broadly, the Ki is a measure of affinity in units of concentration, obtained from inhibition or displacement.

Bounds are passed on as bounds.

One series deals with Plasmodium falciparum. Put plainly: Antiplasmodial activity against chloroquine-susceptible blood forms of Plasmodium falciparum 3D7 infected in human erythrocytes measured after 48 hrs by SYBR green1 staining based fluorescence assay. The format is functional, organism-based. The note with it: 3D7, 48 h.
In series [1] the target is Plasmepsin 4 (Plasmodium falciparum) (UniProt Q17SB2). As to the kind of experiment: Inhibition of Plasmodium falciparum Plm4 at 10 uM using synthetic substrate pretreated for 5 mins followed by substrate addition measured immediately by spectrophotometric method relative to control.
Chain of Plasmepsin 4 (Plasmodium falciparum) (Q17SB2 1-448): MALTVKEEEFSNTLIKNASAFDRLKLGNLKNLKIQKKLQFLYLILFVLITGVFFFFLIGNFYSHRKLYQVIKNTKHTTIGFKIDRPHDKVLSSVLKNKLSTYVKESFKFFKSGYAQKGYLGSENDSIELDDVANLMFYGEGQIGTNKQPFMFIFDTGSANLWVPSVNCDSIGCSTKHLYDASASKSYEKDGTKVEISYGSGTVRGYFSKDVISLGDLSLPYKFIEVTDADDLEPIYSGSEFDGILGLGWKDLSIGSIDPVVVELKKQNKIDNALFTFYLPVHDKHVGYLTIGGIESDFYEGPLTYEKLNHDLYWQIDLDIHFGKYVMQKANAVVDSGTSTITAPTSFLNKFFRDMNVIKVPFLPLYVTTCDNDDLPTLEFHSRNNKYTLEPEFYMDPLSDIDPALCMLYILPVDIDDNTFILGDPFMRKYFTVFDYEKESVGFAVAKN
Series [2] has as its target Plasmepsin II (Plasmodium falciparum) (UniProt P46925). Put plainly: (§1) Inhibition of Plasmodium falciparum Plm2 using synthetic substrate pretreated for 5 mins followed by substrate addition measured immediately by spectrophotometric method.
The next series concerns the target Plasmepsin 4 (Plasmodium falciparum, UniProt Q17SB2). Put plainly: (§2) Inhibition of Plasmodium falciparum Plm4 using synthetic substrate pretreated for 5 mins followed by substrate addition measured immediately by spectrophotometric method.
Series [3] deals with Plasmepsin 4 (Plasmodium falciparum) (UniProt Q17SB2). The description is as §2.
Series [4] concerns the target Plasmepsin II (Plasmodium falciparum) (UniProt P46925). As to the kind of experiment: Inhibition of Plasmodium falciparum Plm2 at 10 uM using synthetic substrate pretreated for 5 mins followed by substrate addition measured immediately by spectrophotometric method relative to control.
Series [5] in a line: Therapeutic index, ratio of IC50 for human HepG2 cells to IC50 for chloroquine-susceptible blood forms of Plasmodium falciparum 3D7 infected in human erythrocytes. The format is toxicity, cell-based. The note with it: read-out: Ratio IC50.
In the next series the test system is HepG2. Put plainly: Cytotoxicity against human HepG2 cells after 48 hrs by MTT assay. In kind it is cell-based. The note with it: HepG2, 48 h. (Tetrazolium assays rely on reduction of a dye to a coloured formazan, in cell work by metabolically active cells.)
Another series addresses Plasmepsin II (Plasmodium falciparum, UniProt P46925). The series is described as §1.
Series [6] is described as follows: Therapeutic index, ratio of IC50 for African green monkey Vero cells to IC50 for chloroquine-susceptible blood forms of Plasmodium falciparum 3D7 infected in human erythrocytes. In kind it is toxicity, cell-based. The note with it: read-out: Ratio IC50.
Another series relates to Vero. Put plainly: Cytotoxicity against African green monkey Vero cells after 48 hrs by MTT assay. In kind it is cell-based. Particulars: Chlorocebus sabaeus.

Chain of Plasmepsin 4 (Q17SB2 whole entry): as the sequence (Q17SB2 1-448) above
Chain of Plasmepsin II (Plasmodium falciparum) (P46925 125-453 limits assumed): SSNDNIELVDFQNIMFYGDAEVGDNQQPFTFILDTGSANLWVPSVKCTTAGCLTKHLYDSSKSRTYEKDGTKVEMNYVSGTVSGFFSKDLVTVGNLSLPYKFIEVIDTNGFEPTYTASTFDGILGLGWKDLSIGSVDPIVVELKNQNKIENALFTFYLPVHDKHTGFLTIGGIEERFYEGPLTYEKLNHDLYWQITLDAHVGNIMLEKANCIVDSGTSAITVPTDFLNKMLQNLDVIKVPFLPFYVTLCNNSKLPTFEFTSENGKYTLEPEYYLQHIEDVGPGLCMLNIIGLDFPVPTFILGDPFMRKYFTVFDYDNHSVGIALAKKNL
Chain of Plasmepsin II (P46925 whole entry): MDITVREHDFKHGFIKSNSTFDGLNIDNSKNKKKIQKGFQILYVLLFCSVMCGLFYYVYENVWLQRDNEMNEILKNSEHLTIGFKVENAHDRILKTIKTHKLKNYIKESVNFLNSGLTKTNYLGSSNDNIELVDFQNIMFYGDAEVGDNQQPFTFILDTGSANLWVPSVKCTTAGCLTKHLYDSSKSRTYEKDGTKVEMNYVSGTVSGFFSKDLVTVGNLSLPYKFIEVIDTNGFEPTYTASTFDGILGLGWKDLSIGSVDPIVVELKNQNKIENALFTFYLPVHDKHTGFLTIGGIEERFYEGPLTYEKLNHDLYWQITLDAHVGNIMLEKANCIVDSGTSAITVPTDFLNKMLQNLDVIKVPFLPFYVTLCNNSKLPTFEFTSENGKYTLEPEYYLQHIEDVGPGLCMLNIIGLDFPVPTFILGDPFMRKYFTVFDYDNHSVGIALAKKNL

In the series on Plasmodium falciparum, `N[C@@H](Cc1ccccc1)[C@H](O)CN1CCN(C[C@@H](O)[C@@H](N)Cc2ccccc2)CC1` came in with an IC50 of 3.47 µM.
As to `CC[C@H](C)[C@H](NC(=O)OC(C)(C)C)C(=O)N[C@@H](Cc1ccccc1)[C@H](O)CN1CCN(C[C@@H](O)[C@H](Cc2ccccc2)NC(=O)[C@@H](NC(=O)OC(C)(C)C)[C@@H](C)CC)CC1`, the IC50 with Plasmodium falciparum turned out to be 1.84 µM.
Take `Cc1ccc2c(c1)C(=O)N(CC(=O)N[C@@H](Cc1ccccc1)[C@H](O)CN1CCN(C[C@H](O)[C@@H](Cc3ccccc3)NC(=O)CN3C(=O)c4ccc(C)cc4C3=O)CC1)C2=O`: the inhibition in series [1] was above 50%; in series [2] it was “Dose-dependent effect”; in series [3], “Dose-dependent effect”; in series [4] it was above 50%. In the series on Plasmodium falciparum, the IC50 amounted to 10.8 µM. The Ki on Plasmepsin 4 was 3.35 µM.
In the case of `CC(C)[C@H](N)C(=O)NC(Cc1ccccc1)C(O)CN1CCN(C[C@@H](O)[C@H](Cc2ccccc2)NC(=O)[C@@H](N)C(C)C)CC1` (single isomer, unassigned), in the series on Plasmodium falciparum, the IC50 turned out to be 2.72 µM.
Consider `Cc1ccc2c(c1)C(=O)N([C@H](C(=O)NC(Cc1ccccc1)C(O)CN1CCN(C[C@@H](O)[C@H](Cc3ccccc3)NC(=O)[C@H](C(C)C)N3C(=O)c4ccc(C)cc4C3=O)CC1)C(C)C)C2=O` (single isomer, unassigned), for which half-maximal inhibition in the series with Plasmodium falciparum (IC50) required 2.26 µM.
`Cc1ccc2c(c1)C(=O)N([C@@H](C)C(=O)NC(Cc1ccccc1)C(O)CN1CCN(C[C@@H](O)[C@H](Cc3ccccc3)NC(=O)[C@H](C)N3C(=O)c4ccc(C)cc4C3=O)CC1)C2=O` (single isomer, unassigned) came in with an IC50 with Plasmodium falciparum of 19 µM.
With `C[C@H](NC(=O)OC(C)(C)C)C(=O)N[C@@H](Cc1ccccc1)[C@H](O)CN1CCN(C[C@H](O)[C@@H](Cc2ccccc2)NC(=O)[C@H](C)NC(=O)OC(C)(C)C)CC1`, the IC50 in the series on Plasmodium falciparum stood at 8.28 µM.
Take `CC(C)(C)OC(=O)NCC(=O)NC(Cc1ccccc1)C(O)CN1CCN(C[C@@H](O)[C@H](Cc2ccccc2)NC(=O)CNC(=O)OC(C)(C)C)CC1` (single isomer, unassigned): the IC50 with Plasmodium falciparum is 8.6 µM.
For `C[C@@H]1CC[C@H]2[C@@H](C)C(=O)O[C@@H]3O[C@@]4(C)CC[C@@H]1[C@]32OO4` [ARTEMISININ], the IC50 in the series on Plasmodium falciparum turned out to be 0.074 µM.
`C[C@@H](C(=O)NC(Cc1ccccc1)C(O)CN1CCN(C[C@@H](O)[C@H](Cc2ccccc2)NC(=O)[C@H](C)N2C(=O)c3ccccc3C2=O)CC1)N1C(=O)c2ccccc2C1=O` (single isomer, unassigned) had an IC50 with Plasmodium falciparum of 7.6 µM.
Still for that read-out and setting: with `O=C(CN1C(=O)c2ccccc2C1=O)NC(Cc1ccccc1)C(O)CN1CCN(C[C@@H](O)[C@H](Cc2ccccc2)NC(=O)CN2C(=O)c3ccccc3C2=O)CC1` (single isomer, unassigned) the figure was 20.3 µM.
Consider `CC[C@H](C)[C@@H](C(=O)N[C@@H](Cc1ccccc1)[C@H](O)CN1CCN(C[C@@H](O)[C@H](Cc2ccccc2)NC(=O)[C@H]([C@@H](C)CC)N2C(=O)c3ccc(C)cc3C2=O)CC1)N1C(=O)c2ccc(C)cc2C1=O`, for which the inhibition in series [1] is above 50%; in series [2] it was “Dose-dependent effect”; in series [3], “Dose-dependent effect”; in series [4], above 50%. The IC50 with Plasmodium falciparum is 3.11 µM. Further, the inhibition constant Ki on Plasmepsin 4 worked out at 0.841 µM.
In the case of `C[C@H](N)C(=O)NC(Cc1ccccc1)C(O)CN1CCN(C[C@@H](O)[C@H](Cc2ccccc2)NC(=O)[C@H](C)N)CC1` (single isomer, unassigned), the midpoint of inhibition in the series with Plasmodium falciparum, the IC50, lay at 6.98 µM.
The compound `CC(C)[C@H](NC(=O)OC(C)(C)C)C(=O)N[C@@H](Cc1ccccc1)[C@H](O)CN1CCN(C[C@H](O)[C@@H](Cc2ccccc2)NC(=O)[C@@H](NC(=O)OC(C)(C)C)C(C)C)CC1` displayed an IC50 with Plasmodium falciparum of 4.38 µM.
For `Cc1ccc2c(c1)C(=O)N([C@@H](CC(C)C)C(=O)NC(Cc1ccccc1)C(O)CN1CCN(C[C@@H](O)[C@H](Cc3ccccc3)NC(=O)[C@H](CC(C)C)N3C(=O)c4ccc(C)cc4C3=O)CC1)C2=O` (single isomer, unassigned), the selectivity ratio in [5] and in series [6] was above 10 each time. Also, the inhibition is above 50% in series [1], “Dose-dependent effect” in series [2], “Dose-dependent effect” in series [3] and above 50% in series [4]. For the same compound, the IC50 was 27 µM in the series with HepG2, 2.27 µM in the series with Plasmodium falciparum and 60 µM in the series with Vero. The Ki on Plasmepsin II came out at 1.92 µM; at Plasmepsin 4, 1.98 µM.
In the case of `CC[C@H](C)[C@H](N)C(=O)N[C@@H](Cc1ccccc1)[C@H](O)CN1CCN(C[C@@H](O)[C@H](Cc2ccccc2)NC(=O)[C@@H](N)[C@@H](C)CC)CC1`, the selectivity ratio in [5] and in [6] was above 10 throughout. In addition, the values for the IC50 in the series with HepG2, in the series on Plasmodium falciparum and in the series with Vero were 125 µM, 1.35 µM and above 156 µM, respectively.

Values taken from ChEMBL document CHEMBL4118288, “Antiplasmodial activity of hydroxyethylamine analogs: Synthesis, biological activity and structure activity relationship of plasmepsin inhibitors” (Bioorg Med Chem, 2018).
